We go through three compounds from ChEMBL document CHEMBL1128903, “Atropisomeric carbamoyl type inhibitors of pancreatic cholesterol esterase” (Bioorg Med Chem Lett, 1996).

As a reminder, the Ki is a dissociation constant, usually derived from enzyme kinetics or from competition with a known ligand. A word on the pKi: it is the negative decadic logarithm of the Ki, by convention in mol/L.

Assay [1] concerns the target T1, Bile salt-activated lipase (Bos taurus) (UniProt P30122).
T1 sequence (whole entry): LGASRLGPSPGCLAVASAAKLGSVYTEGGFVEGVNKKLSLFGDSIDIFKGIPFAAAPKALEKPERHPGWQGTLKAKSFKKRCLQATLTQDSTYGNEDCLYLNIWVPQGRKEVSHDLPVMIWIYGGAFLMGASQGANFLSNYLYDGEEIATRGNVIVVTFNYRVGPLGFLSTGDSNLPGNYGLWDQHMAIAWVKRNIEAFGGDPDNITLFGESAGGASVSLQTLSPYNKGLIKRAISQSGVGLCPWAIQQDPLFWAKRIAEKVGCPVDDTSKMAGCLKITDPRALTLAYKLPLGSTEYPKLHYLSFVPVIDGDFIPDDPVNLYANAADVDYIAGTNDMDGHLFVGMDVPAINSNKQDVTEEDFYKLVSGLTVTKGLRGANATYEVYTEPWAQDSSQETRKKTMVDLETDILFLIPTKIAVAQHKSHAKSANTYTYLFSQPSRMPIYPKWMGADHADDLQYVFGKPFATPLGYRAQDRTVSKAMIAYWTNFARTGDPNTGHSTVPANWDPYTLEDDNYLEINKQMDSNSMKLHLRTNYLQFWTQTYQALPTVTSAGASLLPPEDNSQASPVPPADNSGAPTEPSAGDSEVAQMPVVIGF
Description: Carbamylation constant (k2) for the Pancreatic cholesterol esterase-catalyzed hydrolysis of 4-nitrophenyl butyrate

Assay [2] deals with T2, Bile salt-activated lipase (Bos taurus, UniProt P30122).
T2 sequence (P30122 whole entry): T1 sequence (whole entry)
The assay is described as follows: Bimolecular rate constant (ki) for the Pancreatic cholesterol esterase-catalyzed hydrolysis of 4-nitrophenyl butyrate.

Assay [3] concerns the target T2, Bile salt-activated lipase. Briefly: Dissociation constant (KI) for the Pancreatic cholesterol esterase-catalyzed hydrolysis of 4-nitrophenyl butyrate.

pKi: −log10 of the molar value. “And” between values parts separate entries of the source, which are not always exact repeats. Equal entries are not always repeated.

Take `CCCCNC(=O)Oc1ccc2ccccc2c1-c1c(O)ccc2ccccc12`: the k2 in assay [1] is 0.01 10e3 s-1 and 0.007 10e3 s-1 and 0.006 10e3 s-1. For the same compound, the “Bimolecular rate constant (ki)” value in assay [2] was 12000 10e2 M-1 s-1 and 10000 10e2 M-1 s-1 and 5000 10e2 M-1 s-1. Besides, in assay [3], the Ki was 800 nM (2×) and 1.3 µM.
With `CCCCNC(=O)Oc1ccc2ccccc2c1-c1c(OC(=O)CCC)ccc2ccccc12`, in assay [1], the k2 was 0.0008 10e3 s-1 and 0.0006 10e3 s-1 (2×). For the same compound, the “Bimolecular rate constant (ki)” value in assay [2] was 40 10e2 M-1 s-1 and 80 10e2 M-1 s-1 and 60 10e2 M-1 s-1. The pKi in assay [3] was 4.70 and 5.05 and 5.00.
For `CCCCNC(=O)Oc1ccc2ccccc2c1-c1c(OC(=O)NCCCC)ccc2ccccc12`, the k2 in assay [1] is 0.00095 10e3 s-1 and 0.0016 10e3 s-1 and 0.0012 10e3 s-1.
